Reference: publication PMC12289066, “Identification of glutathione transferase (GST P1) inhibitors via a high-throughput screening assay and implications as alternative treatment options for breast cancers” (PLOS One, 2025)

Target: T1, GST P1-1 (Homo sapiens, UniProt P09211)
T1 construct: purchased Sigma-Aldrich
Test: High-throughput GST P1-1 inhibition assay (384-well screen, CDNB/GSH)
Format: biochemical
Settings: compound 10 μM; score 0 = negative control (DMSO), 1 = positive control (EA 50 μM); average of duplicate
Experimental: Each drug compound was added to the respective well at a volume of 80 nL of 10 mM stock solution in DMSO, yielding a final compound concentration of 10 μM and a final DMSO concentration of 0.1%. Each plate’s first and last two columns were used as negative (no compound added – 80 nL per well of DMSO) and positive (80 nL of EA added with a final concentration of 50 μM) controls, respectively. The Gyger Certus Flex dispenser was set up using a freshly prepared 1 mM of GSH and 20 nM of GST P1-1, pH 7.4, in one syringe and 8 mM CDNB solution in pure ethanol in the other syringe. Into each well 80 μL of GST-GSH solution was dispensed and incubated at 25°C for 20 minutes before the reaction was initiated by the addition of 4 μL of CDNB solution. The plates were incubated for 2 h in the dark at 25°C and then the absorbance was of each well recorded on a BioTek Synergy NEO HTS multimode plate reader (Agilent®) at a wavelength of 340 nm.
The z’factor was calculated for each plate according to Zhang et al.. The Z-factor is a dimensionless, simple statistical characteristic for each HTS assay. This provides a valuable tool for the comparison and assessment of the quality of assays, and can be utilized in assay optimization and validation. For each plate, the concentration of product was normalized by assigning a score of 0 (0%) to the negative control (average of maximal concentration of product measured in the presence of enzyme without any inhibitor) and a score of 1 (100%) was assigned to the positive control (average minimal concentration of product measured in the presence of enzyme with the reference inhibitor, i.e., EA). The experiment was performed in duplicate and the score for each drug compound was calculated as an average ± standard deviation. […] An internal laboratory information management system (LIMS) was used for basic data processing, management, visualization, and statistical hit validation.

T1 sequence (P09211 2-210 limits assumed): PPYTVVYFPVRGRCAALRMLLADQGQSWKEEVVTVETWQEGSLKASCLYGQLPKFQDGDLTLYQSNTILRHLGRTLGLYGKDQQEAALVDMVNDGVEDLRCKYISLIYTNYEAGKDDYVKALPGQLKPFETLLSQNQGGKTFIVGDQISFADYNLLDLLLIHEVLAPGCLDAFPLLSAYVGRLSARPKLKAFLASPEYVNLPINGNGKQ

SMILES | Score
O=C(NCc1ccc(Oc2ccccc2)cc1)c1nc(-c2cc(Br)c(O)c(Br)c2)no1 [IOWH-032] | 0.901
O=C1OC2(c3ccccc31)c1cc(I)c(O)c(I)c1Oc1c2cc(I)c(O)c1I [Erythrosine] | 0.828
CC(C)c1onc(-c2c(Cl)cccc2Cl)c1COc1ccc(/C=C/c2cccc(C(=O)O)c2)c(Cl)c1 [GW 4064] | 0.702
N[C@@H](Cc1cc(-c2ccc(Cl)cc2Cl)cc(CP(=O)(O)O)c1O)C(=O)O [SDZ-220-040] | 0.871
O=C(O)C(Cc1ccccc1[N+](=O)[O-])=NNc1nc(-c2ccc(Cl)c(Cl)c2)cs1 (mixture of isomers) [4EGI-1] | 0.730
CC1(C)CC[C@]2(NC(=O)C(C)(F)F)CC[C@]3(C)[C@H](C(=O)C=C4[C@@]5(C)C=C(C#N)C(=O)C(C)(C)[C@@H]5CC[C@]43C)[C@@H]2C1 [RTA-408] | 0.807
CCCCCC/C=C/C=C\CCCCCCCC(=O)O [Cis-9,trans-11-Conjugated-linoleic-acid] | 0.796
COc1cc(C(=O)NS(=O)(=O)c2ccccc2C)ccc1Cc1cn(C)c2ccc(NC(=O)OC3CCCC3)cc12 [Zafirlukast] | 0.801
O=C(O)C(=O)c1cn(Cc2ccccc2)c2ccc(-c3ccc(OC(F)(F)F)cc3)cc12 [Tiplaxtinin] | 0.836
Cc1cc(-c2ccc(/N=N/c3ccc4c(S(=O)(=O)O)cc(S(=O)(=O)O)c(N)c4c3O)c(C)c2)ccc1/N=N/c1ccc2c(S(=O)(=O)O)cc(S(=O)(=O)O)c(N)c2c1O [Evans Blue] | 0.783
CC(C)(c1ccc(OCC2CO2)cc1)c1ccc(OCC2CO2)cc1 (stereo not drawn) [BADGE] | 0.715
Cc1noc(-c2ccc(CSCCC(=O)O)cc2)c1NC(=O)OC(C)c1ccccc1Cl (stereo not drawn) [Ki16425] | 0.710
O=C(Nc1cccc(C(F)(F)F)c1)Nc1ccc(Br)cc1-c1nn[nH]n1 [NS-3623] | 0.752
CC/C=C\C/C=C\C/C=C\C/C=C\C/C=C\C/C=C\CCC(=O)O [Docosahexaenoic Acid] | 0.821
CC[C@@H](C(=O)[C@@H](C)[C@@H](O)[C@H](C)CCc1ccc(C)c(O)c1C(=O)O)[C@H]1O[C@](CC)([C@H]2CC[C@](O)(CC)[C@H](C)O2)C[C@@H]1C [Lasalocid] | 0.863
CC1=C(CCC(=O)O)c2cc3[nH]c(cc4nc(cc5[nH]c(cc1n2)c(C)c5C(C)O)C(C)=C4C(C)O)c(C)c3CCC(=O)O (stereo not drawn) [Hematoporphyrin] | 0.758
CC1=NN(c2ccccc2)C(=O)C1 [Edaravone] | 0.958
CC(C)=CCC/C(C)=C/CC/C(C)=C/CSc1ccccc1C(=O)O [Salirasib] | 0.717
CC#C[C@@H](CC(=O)[O-])c1ccc(OCc2cccc(-c3ccc(C(F)(F)F)cc3)c2)cc1.CC#C[C@@H](CC(=O)[O-])c1ccc(OCc2cccc(-c3ccc(C(F)(F)F)cc3)c2)cc1.O.[Ca+2] [AMG 837 (calcium hydrate)] | 0.783
O=C1OC2(c3cc(I)c(O)c(I)c3Oc3c2cc(I)c(O)c3I)c2c(Cl)c(Cl)c(Cl)c(Cl)c21 [Rse-bengal] | 0.996
O=c1c(-c2ccccc2)c1-c1ccccc1 [Diphencyprone] | 0.744
O=C1OC2(c3cc(I)c(O)c(I)c3Oc3c2cc(I)c(O)c3I)c2c(Cl)c(Cl)c(Cl)c(Cl)c21 [Rose-bengal-lactone] | 0.937
CC(C)(C)c1ccc(CN2CCN(C(c3ccccc3)c3ccc(Cl)cc3)CC2)cc1 (stereo not drawn) [Buclizine] | 0.694
Oc1c(Cl)cc(Cl)cc1Sc1cc(Cl)cc(Cl)c1O [Bithionol] | 1.007
O=C(/C=C/c1ccccc1)NC(NC(=S)Nc1ccc(Cl)cc1)C(Cl)(Cl)Cl (stereo not drawn) [Sal003] | 0.865
CCOc1c2c(c(OCC)c3ccccc13)C(=O)N(c1ccc(CC(=O)NS(=O)(=O)c3ccccc3)cc1)C2 [GW627368] | 0.854
O=S(=O)(O)c1ccc(-c2c3nc(c(-c4ccc(S(=O)(=O)O)cc4)c4ccc([nH]4)c(-c4ccc(S(=O)(=O)O)cc4)c4nc(c(-c5ccc(S(=O)(=O)O)cc5)c5ccc2[nH]5)C=C4)C=C3)cc1 [TPPS4] | 0.809
